According to PubChem BioAssay (NCI):
Values joined by “and” are separate entries in the source; they are usually repeats but may differ in a detail not shown here. Equal values may be shown once.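 Interpolation was linear, between the two tested concentrations surrounding the appropriate level; five concentrations were tested over 48 hours in 96-well plates. At the GI50, growth is halved. TGI denotes the concentration required for complete inhibition of growth.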 Where a SMILES comes first, the peptide text is derived from it. [ ]: non-standard residue; d: D form. The star is where a group is joined. ξ: configuration not given here. X3 = COc1ccc(C(N*)c2ccc(OC)cc2)cc1; NMeF = CN[C@@H](Cc1ccccc1)C(=O)O; NMeD = CN[C@@H](CC(=O)O)C(=O)O; NMeV = CN[C@H](C(=O)O)C(C)C; ξNMeV = CNC(C(=O)O)C(C)C; Boc = CC(C)(C)OC(=O)*; ξNMeA = CNC(C)C(=O)O; ξV = CC(C)C(N)C(=O)O

Tests used:
Test in all cases: growth of human tumour cells (NCI), 48 h
EKVX NSCLC = test system: EKVX NSCLC
HOP-62 NSCLC = test system: HOP-62 NSCLC
MDA-MB-231 breast = test system: MDA-MB-231 breast
MOLT-4 leukemia = test system: MOLT-4 leukemia
OVCAR-8 ovarian = test system: OVCAR-8 ovarian
SN12C renal = test system: SN12C renal
SW-620 colon = test system: SW-620 colon
TK-10 renal = test system: TK-10 renal
DMS 273 small cell lung = test system: DMS 273 small cell lung
HOP-18 NSCLC = test system: HOP-18 NSCLC
SNB-78 CNS = test system: SNB-78 CNS

Structure (SMILES) | GI50 (EKVX NSCLC) [µM] | TGI (EKVX NSCLC) | GI50 (HOP-62 NSCLC) [µM] | TGI (HOP-62 NSCLC) | GI50 (MDA-MB-231 breast) [µM] | TGI (MDA-MB-231 breast) [µM] | GI50 (MOLT-4 leukemia) [µM] | TGI (MOLT-4 leukemia) | GI50 (OVCAR-8 ovarian) [µM] | TGI (OVCAR-8 ovarian) | GI50 (SN12C renal) [µM] | TGI (SN12C renal) | GI50 (SW-620 colon) [µM] | TGI (SW-620 colon) | GI50 (TK-10 renal) [µM] | TGI (TK-10 renal) | TGI (DMS 273 small cell lung) [µM] | TGI (HOP-18 NSCLC) [µM] | TGI (SNB-78 CNS) [µM]
CCOC(=O)C1=C(C)N(c2ccc(F)cc2F)[C@]2(C#N)C(O)=C(Cl)C(Cl)=C(O)[C@]12C#N | > 100 | > 100 µM | > 100 | > 100 µM | > 100 | > 100 | > 100 | > 100 µM | > 100 | > 100 µM | > 100 | > 100 µM | > 100 | > 100 µM | > 100 | > 100 µM |  |  | 
Nc1n[nH]c2cc(F)c([C@@H]3Nc4ccc5[nH]ncc5c4[C@H]4C5CCC(C5)[C@@H]34)cc12 (some centres not stated) | 0.237 | 49.4 µM | 0.222 | 9.12 µM | 0.2 | 7.86 | 0.207 | > 50 µM | 0.193 | > 30.6 µM | 0.228 | 37.1 µM | 0.188 | > 25 µM | 3.46 | > 50 µM |  |  | 
C/C(=N/Nc1ccc([N+](=O)[O-])cc1[N+](=O)[O-])C(CC(C(=O)NCc1ccccc1)/C(C)=N\Nc1ccc([N+](=O)[O-])cc1[N+](=O)[O-])C(=O)NCc1ccccc1 (configuration not stated) |  | 32.9 µM |  | 13.9 µM |  |  |  |  |  | 4.73 µM |  | 15.1 µM |  | 24.4 µM |  |  | 20.4 | 9.48 | 31
Cc1ccc(-n2c3nc(=O)[nH]c(=O)c-3cc3cc([N+](=O)[O-])ccc32)cc1 | 33.1 | 67 µM | 2.57 | 11.8 µM | 17.8 | 44.2 | 6.61 | > 100 µM | 38.6 | > 100 µM | 20.6 | 56.5 µM | 4.71 | > 100 µM | 29.3 | 64.5 µM |  |  | 
COCCOc1ccc(-c2nc3ccc(-c4nc5ccc(N6CCN(C)CC6)cc5[nH]4)cc3[nH]2)cc1 | 6.56 | 46.3 µM | 1.56 | 14.5 µM | 2.25 | 6.49 | 2.81 | > 100 µM | 0.931 | 23.4 µM | 1.42 | 11.8 µM | 0.9 | 4.59 µM | 4.74 | 40.2 µM |  |  | 
COc1cc(/C(C#N)=C/c2nc3c(N4CCOCC4)nc(Cl)nc3n2C)cc(OC)c1OC |  | > 69.9 µM | < 0.01 | 12.9 µM | < 0.01 | 35.9 | < 0.0184 | 27.5 µM | < 0.01 | 31.3 µM | < 0.01 | 22.1 µM | < 0.01 | > 100 µM | 2.91 | 17.8 µM |  |  | 
COc1ccc(C(NC(=O)C[C@@H](C(=O)N(C)C(C)C(=O)O)N(C)C(=O)[C@@H]2CCCN2C(=O)[C@H](C(C)C)N(C)C(=O)C(C(C)C)N(C)C(=O)[C@H](Cc2ccccc2)N(C)C(=O)C(NC(=O)OC(C)(C)C)C(C)C)c2ccc(OC)cc2)cc1 (some centres not stated) (Boc-[ξV][NMeF][ξNMeV][NMeV]P[NMeD](X3)[ξNMeA]-OH) | 21.6 | 37.5 µM and 39.6 µM | 18.5 | 31.8 µM and 35.5 µM |  | 32.3 | 17 | 19.3 µM and 43.7 µM | 19.1 | 37.5 µM and 33.7 µM | 19.1 | 37.5 µM and 38.9 µM | 18.3 | 16.5 µM and 32.3 µM | 20.6 | 37.5 µM and 35.1 µM | 30.9 |  | 36.5
COc1ccc2nc3cc(Cl)ccc3c(NCCNCC(C)O)c2c1 (configuration not stated) | 2.6 | 10.7 µM | 1.31 | 4.09 µM | 1.49 | 4.28 | 0.512 | 11.1 µM | 1.94 | 7.65 µM | 1.85 | 7.4 µM | 0.818 | 10.3 µM | 2.85 | 8.28 µM |  |  | 
O=C1CCCCN1c1ccccc1C#C/C=C\C#Cc1ccccc1C(F)(F)F | 4.08 | > 50 µM | 0.899 | 2.94 µM | 1.16 | 2.71 | 1.59 | 6.96 µM | 1.49 | 5.64 µM | 1.59 | 3.67 µM | 2.04 | 46 µM | 3.35 | 30.8 µM |  |  | 
CCn1c(-c2nonc2N)nc2c(C#CC(C)(C)O)nc(OC[C@@H](N)c3ccccc3)cc21 | 10.4 | 22.4 µM | 6.09 | 10.2 µM | 4.68 | 8.86 | 4.42 | 16 µM | 4.45 | 8.83 µM | 3.96 | 7.66 µM | 4.58 | 9.5 µM | 5.09 | 11.3 µM |  |  | 
Cc1csc(-c2nnc(Nc3ccc(Oc4ncccc4-c4ccnc(N)n4)cc3)c3ccccc23)c1 | > 100 | > 100 µM | 4.4 | > 100 µM | 4.32 | > 100 | 3.34 | > 100 µM |  | > 100 µM | 2.54 | > 100 µM | 0.651 | > 100 µM | > 100 | > 100 µM |  |  | 
CC(C)(C)c1cc2c(O)c3cccc4c(=O)c5cccc6c5-c(c34)c2c(c1)c6=O |  | > 100 µM |  | > 100 µM |  |  |  | > 100 µM |  | > 100 µM |  | > 100 µM |  | > 100 µM |  | > 100 µM | > 100 | > 100 | 
Cc1ccc(/C=C/C(=O)CCN(C)C)cc1 |  |  |  | > 100 µM |  |  |  | 51.7 µM |  | 62.2 µM |  | 32.1 µM |  | 30.2 µM |  | 30.2 µM | 25.6 | 38.4 | 87
N#Cc1c[nH]n2c(N=Nc3ccc(Cl)cc3)c(O)nc12 | 31.7 | 81.1 µM | 62.7 | > 100 µM | 16.2 | > 100 | 33.7 | > 100 µM | 32 | > 100 µM | 24.1 | 57.3 µM | 47.9 | > 100 µM | 21.3 | 68.3 µM |  |  | 
c1ccc(Sc2ncnc3ccccc23)cc1 | 10.6 | 25.1 µM | 16.3 | 40.5 µM | 13.5 | 49.9 | 4.98 | 36 µM | 19.8 | 75.9 µM | 10.8 | 27.4 µM | 14.6 | 34.8 µM | 27.6 | > 100 µM |  |  | 
